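Five concentrations, 48 hours, 96-well plates. GI50 = concentration required for 50% inhibition of growth.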 The source made the active and inactive calls. Rule as the data show it: active = GI50 up to about 1.1 µM and inactive = higher.
What was measured:
Assay in all cases: NCI tumour cell line growth inhibition, 48 h
KM12 = tested on: KM12
UO-31 = tested on: UO-31
SK-MEL-5 = tested on: SK-MEL-5
CAKI-1 = tested on: CAKI-1
M14 = tested on: M14
786-0 = tested on: 786-0
RXF 393 = tested on: RXF 393
TK-10 = tested on: TK-10
SN12C = tested on: SN12C
UACC-62 = tested on: UACC-62
CCRF-CEM = tested on: CCRF-CEM
HCT-15 = tested on: HCT-15
U-251 = tested on: U-251
NCI/ADR-RES = tested on: NCI/ADR-RES
RPMI-8226 = tested on: RPMI-8226
SF-539 = tested on: SF-539
OVCAR-8 = tested on: OVCAR-8
SK-MEL-2 = tested on: SK-MEL-2
SR = tested on: SR
HCC 2998 = tested on: HCC 2998

SMILES | GI50 (KM12) | GI50 (UO-31) | GI50 (SK-MEL-5) | GI50 (CAKI-1) | GI50 (M14) | GI50 (786-0) | GI50 (RXF 393) | GI50 (TK-10) | GI50 (SN12C) | GI50 (UACC-62) | GI50 (CCRF-CEM) | GI50 (HCT-15) [µM] | GI50 (U-251) | GI50 (NCI/ADR-RES) | GI50 (RPMI-8226) | GI50 (SF-539) | GI50 (OVCAR-8) | GI50 (SK-MEL-2) | GI50 (SR) | GI50 (HCC 2998)
Nc1nc(N)c2cc(Sc3ccc4ccccc4c3)ccc2n1 | 1.98 µM (inactive) | 2.76 µM (inactive) | 0.845 µM (active) | 4.52 µM (inactive) | 1.23 µM (inactive) | 0.479 µM (active) | 3.32 µM (inactive) | 3.1 µM (inactive) | 1.03 µM (active) | 0.568 µM (active) | 0.705 µM (active) | 0.643 | 2.15 µM (inactive) | 1.07 µM (active) | 2.14 µM (inactive) | 1.73 µM (inactive) | 1 µM (active) | – | – | –
C1=C(c2ccccc2)CN(c2ccccc2)OC1 | > 100 µM (inactive) | 32.2 µM (inactive) | – | 56.5 µM (inactive) | 83.8 µM (inactive) | > 100 µM (inactive) | 33.5 µM (inactive) | > 100 µM (inactive) | > 100 µM (inactive) | 67.3 µM (inactive) | > 100 µM (inactive) | 77.4 | > 100 µM (inactive) | – | 44.8 µM (inactive) | > 100 µM (inactive) | – | 50.6 µM (inactive) | 55.3 µM (inactive) | > 100 µM (inactive)
CC1=C(C)C(=O)OC(C(C)(O)C2(O)CCC3(O)C4CC(Cl)C5(O)C(O)C=CC(=O)C5(C)C4CCC32C)C1 (configuration not stated) | 25.6 µM (inactive) | 15.6 µM (inactive) | – | 12.2 µM (inactive) | 40.3 µM (inactive) | 32.3 µM (inactive) | 18.5 µM (inactive) | 34.3 µM (inactive) | 61 µM (inactive) | 9.1 µM (inactive) | 14.1 µM (inactive) | 28.7 | 37.5 µM (inactive) | – | 8.99 µM (inactive) | 28.2 µM (inactive) | 25.1 µM (inactive) | > 100 µM (inactive) | 8.51 µM (inactive) | 27.1 µM (inactive)
CC(C)=NN/C(=N\c1ccc(Cl)cc1)NS(=O)(=O)c1ccc(Oc2cccc(Cl)c2C#N)cc1 | > 100 µM (inactive) | > 100 µM (inactive) | > 100 µM (inactive) | > 100 µM (inactive) | > 100 µM (inactive) | > 100 µM (inactive) | – | > 100 µM (inactive) | > 100 µM (inactive) | > 100 µM (inactive) | > 100 µM (inactive) | > 100 | > 100 µM (inactive) | > 100 µM (inactive) | > 100 µM (inactive) | – | > 100 µM (inactive) | > 100 µM (inactive) | – | –
CCOC(=O)CC[C@H](NC(=O)c1nc[nH]c1[N+](=O)[O-])C(=O)OCC | > 100 µM (inactive) | > 100 µM (inactive) | – | – | > 100 µM (inactive) | > 100 µM (inactive) | > 100 µM (inactive) | > 100 µM (inactive) | > 100 µM (inactive) | > 100 µM (inactive) | > 100 µM (inactive) | > 100 | > 100 µM (inactive) | – | > 100 µM (inactive) | > 100 µM (inactive) | > 100 µM (inactive) | > 100 µM (inactive) | 35.7 µM (inactive) | > 100 µM (inactive)
CCCCCCCCCCCC(=O)OCC1OC(n2cc(F)c(=O)[nH]c2=O)C(N)C(OC(=O)CCCCCCCCCCC)C1O (configuration not stated) | 45.4 µM (inactive) | > 100 µM (inactive) | 0.59 µM (active) | > 100 µM (inactive) | 64.4 µM (inactive) | > 100 µM (inactive) | > 100 µM (inactive) | > 100 µM (inactive) | 60.7 µM (inactive) | > 100 µM (inactive) | 37.2 µM (inactive) | > 100 | > 100 µM (inactive) | – | 54.5 µM (inactive) | 69.7 µM (inactive) | 93.1 µM (inactive) | > 100 µM (inactive) | 34.4 µM (inactive) | 45.3 µM (inactive)
O=C(CCc1nnc(S)[nH]1)Nc1ccccc1Cl | > 100 µM (inactive) | > 100 µM (inactive) | > 100 µM (inactive) | > 100 µM (inactive) | > 100 µM (inactive) | > 100 µM (inactive) | > 100 µM (inactive) | > 100 µM (inactive) | > 100 µM (inactive) | > 100 µM (inactive) | > 100 µM (inactive) | 20.2 | > 100 µM (inactive) | – | > 100 µM (inactive) | > 100 µM (inactive) | > 100 µM (inactive) | > 100 µM (inactive) | > 100 µM (inactive) | > 100 µM (inactive)
Cc1cccc(N2C(=O)C3c4[nH]c5ccccc5c4C4CCC(C(C)(C)C)CC4C3C2=O)c1 (configuration not stated) | 11.9 µM (inactive) | 15.3 µM (inactive) | 15.1 µM (inactive) | 13.1 µM (inactive) | 13.3 µM (inactive) | 3.63 µM (inactive) | 12.4 µM (inactive) | 14.2 µM (inactive) | 14.2 µM (inactive) | 19.5 µM (inactive) | 8.57 µM (inactive) | 29.4 | 17.3 µM (inactive) | 15.7 µM (inactive) | 12.7 µM (inactive) | – | 3.5 µM (inactive) | 18.2 µM (inactive) | – | –
NC(=O)N/N=C(\CCC(=O)N(Cc1ccccc1)Cc1ccccc1)CC(=O)c1ccc(F)cc1 | > 100 µM (inactive) | > 100 µM (inactive) | > 100 µM (inactive) | > 100 µM (inactive) | > 100 µM (inactive) | 27.2 µM (inactive) | 31.6 µM (inactive) | > 100 µM (inactive) | > 100 µM (inactive) | > 100 µM (inactive) | > 100 µM (inactive) | > 100 | > 100 µM (inactive) | – | – | 23.8 µM (inactive) | > 100 µM (inactive) | > 100 µM (inactive) | > 100 µM (inactive) | > 100 µM (inactive)
CSc1ccc(C=C2N=C(c3ccccc3)N(c3cc(C(=O)c4ccccc4)ccc3N3C(=O)/C(=C/c4ccc(SC)cc4)N=C3c3ccccc3)C2=O)cc1 | 40 µM (inactive) | 48.4 µM (inactive) | 37.6 µM (inactive) | 56.1 µM (inactive) | 76.9 µM (inactive) | 69.3 µM (inactive) | – | 51.1 µM (inactive) | 76.6 µM (inactive) | 44.9 µM (inactive) | 5.69 µM (inactive) | 61.4 | 27 µM (inactive) | 46 µM (inactive) | 25.4 µM (inactive) | 22.6 µM (inactive) | 39.4 µM (inactive) | 36.1 µM (inactive) | – | 46 µM (inactive)
COc1ccc(OC(=O)N2C/C(=C\c3ccccc3)C(=O)/C(=C/c3ccccc3)C2)cc1 | 1.43 µM (inactive) | 10.2 µM (inactive) | 3.09 µM (inactive) | – | 2.62 µM (inactive) | 2.96 µM (inactive) | 2.58 µM (inactive) | 18.2 µM (inactive) | 2.43 µM (inactive) | 2.16 µM (inactive) | 1.02 µM (active) | 2.79 | 2.48 µM (inactive) | – | 0.0476 µM (active) | 7.82 µM (inactive) | 2.47 µM (inactive) | 11.6 µM (inactive) | 0.222 µM (active) | 2.9 µM (inactive)
c1ccc2c3c([nH]c2c1)C1(CCCCC1)c1c([nH]c2ccccc12)C31CCCCC1 | > 100 µM (inactive) | 29 µM (inactive) | 26.2 µM (inactive) | 38.6 µM (inactive) | 30 µM (inactive) | 15.1 µM (inactive) | 25.4 µM (inactive) | 30.9 µM (inactive) | 22.9 µM (inactive) | 23.9 µM (inactive) | 79.8 µM (inactive) | > 100 | 30.2 µM (inactive) | – | 56.8 µM (inactive) | – | 17.8 µM (inactive) | 18.8 µM (inactive) | 22.1 µM (inactive) | 32.3 µM (inactive)
O=C(O)CCCCCOc1cccnc1/C=N/NC1=NCCN1 | > 100 µM (inactive) | > 100 µM (inactive) | > 100 µM (inactive) | > 100 µM (inactive) | > 100 µM (inactive) | > 100 µM (inactive) | > 100 µM (inactive) | > 100 µM (inactive) | > 100 µM (inactive) | > 100 µM (inactive) | > 100 µM (inactive) | > 100 | > 100 µM (inactive) | – | > 100 µM (inactive) | > 100 µM (inactive) | > 100 µM (inactive) | > 100 µM (inactive) | > 100 µM (inactive) | > 100 µM (inactive)
COC(=O)C(C(=O)c1ccccc1)C(C(=O)C(=O)Nc1ccc(OC)cc1OC)C(=O)C(=O)c1ccc(C)cc1 (configuration not stated) | > 100 µM (inactive) | > 100 µM (inactive) | > 100 µM (inactive) | > 100 µM (inactive) | > 100 µM (inactive) | > 100 µM (inactive) | > 100 µM (inactive) | > 100 µM (inactive) | > 100 µM (inactive) | > 100 µM (inactive) | > 100 µM (inactive) | > 100 | > 100 µM (inactive) | – | > 100 µM (inactive) | > 100 µM (inactive) | > 100 µM (inactive) | > 100 µM (inactive) | > 100 µM (inactive) | > 100 µM (inactive)
C/C(=N\NC(=O)CC#N)C(CN1CCCCC1)C(c1ccccc1)c1c(O)c2ccccc2oc1=O (configuration not stated) | 39.5 µM (inactive) | 33.9 µM (inactive) | 51.2 µM (inactive) | 64.7 µM (inactive) | 68.5 µM (inactive) | 78 µM (inactive) | – | 91.8 µM (inactive) | – | 45.4 µM (inactive) | 26.2 µM (inactive) | 45.5 | 58.6 µM (inactive) | 48.9 µM (inactive) | 33.7 µM (inactive) | 52.6 µM (inactive) | 63.5 µM (inactive) | 35.7 µM (inactive) | – | 55.7 µM (inactive)

Reference: ChEMBL document CHEMBL1201862, “PubChem BioAssay data set” (2004)
